Values of other authors, collected in patent US10420763B2, “Sublingual apomorphine” (Sunovion Pharmaceuticals Inc., priority 2009, dated 2019).

System: Parkinson's patients

CN1CCc2cccc3c2[C@H]1Cc1ccc(O)c(O)c1-3 [apomorphine]
adverse effects of intranasal administration (intranasal administration (Koller et al. 2004)): transient nasal blockage, burning sensation and swollen nose and lips
common side effect of subcutaneous injection (subcutaneous injection (Prietz et al. 1998)): development of nodules, which often become infected
adverse effects of sublingual tablets (sublingual administration of apomorphine tablets, prolonged use (Deffond et al. 1993)): severe stomatitis on prolonged use with buccal mucosal ulceration in half the patients treated
